A short description of series [1]: Drug level in human liver microsomes treated with (1S,3R)-3-Acetamido-N-(5-chloro-4-(4,5,6,7-tetrahydropyrazolo-[1,5-a]pyridin-3-yl)pyridin-2-yl)cyclohexanecarboxamide at 10 uM measured after 1 hr in presence of NADPH by LC-UV-MS analysis. In kind it is ADME, Microsome. Background: Microsomes from liver hold many membrane-bound enzymes, among them those of drug oxidation.

Series [2] in a line: Drug level in human hepatocytes treated with (1S,3R)-3-Acetamido-N-(5-chloro-4-(4,5,6,7-tetrahydropyrazolo-[1,5-a]pyridin-3-yl)pyridin-2-yl)cyclohexanecarboxamide. In kind it is ADME, cell-based, Hepatocyte.
Series [3] in a line: Intrinsic clearance in human cryopreserved hepatocytes assessed per million cells […]. In kind it is ADME, cell-based, Hepatocyte. The note with it: read-out: CLH. (In general: Equilibrium dialysis compares concentrations on both sides of a semipermeable membrane.)
The nature of series [4]: Intrinsic clearance in human liver microsome. In kind it is ADME, microsomes. The settings on record: liver microsomes, read-out: CLH.
Series [5] has as its target T1, Cyclin-dependent kinase 9 (Homo sapiens, UniProt P50750). Put plainly: Inhibition of CDK9 in human MCF7 cells assessed as reduction in RNA Polymerase 2 CTD phosphorylation at Ser2 residues measured after 6 hrs by immunofluorescence assay. In kind it is cell-based.
A short description of series [6]: Solubility of compound in pH 4 0.1 M acetate buffer using crystalline form of sample. In kind it is physicochemical.
The nature of series [7]: Solubility of compound in pH 7.4 PBS buffer using crystalline form of sample. In kind it is physicochemical.
Series [8] is described as follows: Solubility of compound in phosphate buffer at pH 7.4 using dried form of sample. In kind it is physicochemical. The settings on record: phosphate buffer, read-out: solubility.
Series [9] is described as follows: Half-life in mouse at 5.2 umol/kg, iv formulated as solution. In kind it is ADME, organism-based. The settings on record: in vivo, dose 5.2 µmol/kg.
Series [10] in a line: Half-life in Han Wistar rat at […], iv formulated as solution. In kind it is ADME, organism-based. The settings on record: in vivo, dose 1.3 µmol/kg.
Series [11] can be described thus: Volume of distribution at steady state in Beagle dog at 5.2 umol/kg, iv administered as 0.25 hrs infusion. The note with it: in vivo, dose 5.2 µmol/kg, read-out: Vdss. In kind it is ADME, organism-based, Canis lupus familiaris.
Series [12] in a line: Clearance in Han Wistar rat plasma at […], iv formulated as solution. In kind it is ADME, organism-based. The settings on record: dose 1.3 µmol/kg.
A short description of series [13]: Clearance in mouse plasma at 5.2 umol/kg, iv formulated as solution. In kind it is ADME, organism-based. The settings on record: dose 5.2 µmol/kg.
Series [14] is described as follows: Intrinsic clearance in dog cryopreserved hepatocytes assessed per million cells […]. In kind it is ADME, cell-based, Canis lupus familiaris, Hepatocyte. The note with it: read-out: CLH.
The nature of series [15]: Intrinsic clearance in rat cryopreserved hepatocytes assessed per million cells […]. In kind it is ADME, cell-based, Hepatocyte. The settings on record: cryopreserved hepatocytes, read-out: CLH.
Series [16] in a line: Half-life in Beagle dog at 5.2 umol/kg, iv administered as 0.25 hrs infusion. In kind it is ADME, organism-based, Canis lupus familiaris. The settings on record: in vivo, dose 5.2 µmol/kg.
The nature of series [17]: Volume of distribution at steady state in mouse at 5.2 umol/kg, iv formulated as solution. In kind it is ADME, organism-based. The settings on record: in vivo, dose 5.2 µmol/kg, read-out: Vdss.
A short description of series [18]: Volume of distribution at steady state in Han Wistar rat at […], iv formulated as solution. In kind it is ADME, organism-based. The note with it: in vivo, dose 1.3 µmol/kg, read-out: Vdss.
A short description of series [19]: Intrinsic clearance in mouse cryopreserved hepatocytes assessed per million cells […]. In kind it is ADME, cell-based, Hepatocyte. The settings on record: read-out: CLH.
Series [20] is described as follows: Lipophilicity, log D of compound in buffer/octanol at pH 7.4 by shake flask method. In kind it is physicochemical.
Series [21] is described as follows: Clearance in Beagle dog plasma at 5.2 umol/kg, iv administered as 0.25 hrs infusion. In kind it is ADME, organism-based, Canis lupus familiaris. The note with it: dose 5.2 µmol/kg.
Series [22] concerns the target CDK9/cyclin T1 (Homo sapiens, UniProt P50750). The experiment in a line: Inhibition of recombinant full length human N-terminal GST-fused CDK9 (1 to 372 residues)/His-tagged CyclinT1 (1 to 726 residues) expressed in baculovirus infected insect cells using FITC-X-GSRTPMY-NH2 as substrate preincubated for 10 mins followed by MgCl2 addition and measured after 90 mins in presence of 5 mM ATP by mobility shift assay.

Series [23] concerns the target T1, Cyclin-dependent kinase 9. Put plainly: Inhibition of CDK9 in human MV4-11 cells assessed as induction of caspase-3/7 activation measured after 6 hrs followed by Caspase-glo reagent based assay. In kind it is cell-based.

The results in this text go back to ChEMBL document CHEMBL4673352, “Discovery of AZD4573, a Potent and Selective Inhibitor of CDK9 That Enables Short Duration of Target Engagement for the Treatment of Hematological Malignancies” (J Med Chem, 2020).

Values after ≈ are worked out from the molar mass of the structure shown.

T1 sequence (P50750 whole entry): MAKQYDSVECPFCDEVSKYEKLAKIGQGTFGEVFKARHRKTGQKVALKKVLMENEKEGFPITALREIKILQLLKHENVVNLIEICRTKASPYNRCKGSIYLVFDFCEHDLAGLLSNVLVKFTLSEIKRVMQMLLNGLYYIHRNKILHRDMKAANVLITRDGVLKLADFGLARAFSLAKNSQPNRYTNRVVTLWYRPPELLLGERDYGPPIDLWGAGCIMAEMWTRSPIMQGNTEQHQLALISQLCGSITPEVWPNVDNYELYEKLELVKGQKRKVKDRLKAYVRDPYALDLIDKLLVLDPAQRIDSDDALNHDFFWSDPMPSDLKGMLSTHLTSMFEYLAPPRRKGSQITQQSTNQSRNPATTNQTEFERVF
CDK9/cyclin T1, sequence (O60563 whole entry, the tested form may be a part): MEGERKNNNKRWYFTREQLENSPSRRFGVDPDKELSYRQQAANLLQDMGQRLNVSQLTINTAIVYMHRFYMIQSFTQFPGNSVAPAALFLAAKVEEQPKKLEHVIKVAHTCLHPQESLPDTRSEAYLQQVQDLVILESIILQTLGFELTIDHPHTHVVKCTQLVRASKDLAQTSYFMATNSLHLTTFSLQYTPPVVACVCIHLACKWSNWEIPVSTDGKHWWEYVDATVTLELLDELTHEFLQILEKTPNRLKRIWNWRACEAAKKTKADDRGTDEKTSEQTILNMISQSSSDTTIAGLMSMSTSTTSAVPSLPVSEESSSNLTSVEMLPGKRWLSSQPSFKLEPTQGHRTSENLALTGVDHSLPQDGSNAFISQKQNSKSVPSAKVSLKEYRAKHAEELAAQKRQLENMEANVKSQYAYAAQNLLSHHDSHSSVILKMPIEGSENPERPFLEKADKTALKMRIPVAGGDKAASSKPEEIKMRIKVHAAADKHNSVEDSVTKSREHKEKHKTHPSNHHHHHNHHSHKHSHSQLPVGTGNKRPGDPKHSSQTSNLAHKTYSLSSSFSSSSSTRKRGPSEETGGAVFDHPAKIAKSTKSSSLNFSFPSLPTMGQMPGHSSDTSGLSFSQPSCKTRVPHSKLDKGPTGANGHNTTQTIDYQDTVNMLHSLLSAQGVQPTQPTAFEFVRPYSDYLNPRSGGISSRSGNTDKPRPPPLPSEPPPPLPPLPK
CDK9/cyclin T1, sequence (P50750 whole entry, the tested form may be a part): as the sequence (P50750 whole entry) above

Consider `CC(=O)N[C@@H]1CCC[C@H](C(=O)Nc2cc(-c3cn[nH]c3CCCCO)c(Cl)cn2)C1`, for which the Drug uptake result in [1] and in series [2] was “Active” throughout. Also, the hepatocyte CLint in series [3] was determined as 2.9 µL/min/1e6 cells. The microsomal CLint in series [4] was found to be 15 µL/min/mg. The concentration for half-maximal inhibition (IC50) in [5] was more than 2 µM.

Take `COc1cc(F)ccc1-c1ccnc(NC(=O)[C@H]2CCC[C@@H](NC(C)=O)C2)c1`: the thermodynamic solubility in series [6] came out at 24 µM (≈ 9.25 µg/mL); in series [7], 7.5 µM (≈ 2.89 µg/mL). For the same compound, the hepatocyte CLint in series [3] is 1.4 µL/min/1e6 cells; in series [14], 5.9 µL/min/1e6 cells; in series [15], 58 µL/min/1e6 cells; in series [19], 52 µL/min/1e6 cells. Also, the solubility in [8] is 33 µM (≈ 12.7 µg/mL). Also, the half-life in series [9] is 15.6 min; in series [10] it was 13.2 min; in [16], 60 min. In addition, the Vd in series [11] is 0.62 L/kg; in [17], 1.1 L/kg; in series [18] it was 1.3 L/kg. Besides, the clearance came out at 77 mL/min/kg in series [12], 40 mL/min/kg in series [13] and 7.5 mL/min/kg in [21]. In addition, the microsomal CLint in [4] came out at 12 µL/min/mg. Moreover, the logD in [20] is 3.

For the compound `CC(=O)N[C@@H]1CCC[C@H](C(=O)Nc2cc(-c3cnn4c3CCCC4O)c(Cl)cn2)C1` (stereo partly drawn), the Drug uptake entry in series [1] and in series [2] was “Active” throughout. Further, the hepatocyte CLint in series [3] was found to be 33 µL/min/1e6 cells. Besides, the microsomal CLint in series [4] stood at 18 µL/min/mg. Further, the IC50 in series [5] is 0.72 µM.

With `CC(=O)N[C@@H]1CCC[C@H](C(=O)Nc2cc(-c3cn[nH]c3CCCC(=O)O)c(Cl)cn2)C1`, the Drug uptake entry in [1] and in series [2] was “Active” throughout.

`CC(=O)N[C@@H]1CCC[C@H](C(=O)Nc2cc(-c3cnn(C)c3C)c(Cl)cn2)C1`: the hepatocyte CLint was less than 1 µL/min/1e6 cells in series [3] and 10 µL/min/1e6 cells in series [15]. Further, the solubility in series [8] was found to be 960 µM (≈ 374 µg/mL). For the same compound, the microsomal CLint in series [4] came out at 3.3 µL/min/mg. In addition, the 50% inhibitory concentration (IC50) in [22] turned out to be 0.27 µM; in series [5], 0.44 µM. In addition, the EC50 in [23] is 0.56 µM. Also, the log distribution coefficient (logD) in series [20] turned out to be 2.6.

One may read the IC50 as the concentration at which inhibition is half-maximal. In general, solubility (thermodynamic) refers to solubility found after equilibrating the solid with the medium. The term solubility denotes the dissolved amount per volume that the medium holds. For orientation: half-life means how long it takes for the measured level to halve. Higher therefore signals slow loss. A word on the clearance: it is the volume of plasma or blood freed of the substance per unit of time. Lower therefore signals inefficient removal. As usually defined, the logD is lipophilicity at a set pH, counting ionised and neutral species. The EC50 is the concentration that produces a half-maximal response.
